Structures are written as SMILES.

The subject of experiment [1] is basal mitophagy, LRRK2[G2019S] MEFs. Put plainly: mito-QC basal mitophagy in LRRK2[G2019S] knock-in primary MEFs. Type of experiment: cell-based, mouse. As to conditions: 24 h, 30–300 nM GZD-824, GSK3357679A 100 nM positive control. On the procedure:
To assess mitophagy, wild type, G2019S knock in, and LRRK2 knock out primary mouse embryonic fibroblasts (MEFs) were derived, from time-mated pregnant females at E12.5 as previously described. Briefly, cells were plated on glass coverslips and incubated with DMEM (Gibco, 11960-044) supplemented with 10% FBS, 2 mM L-Glutamine (Gibco, 2503-081), 1% non-essential amino acids (Gibco, 11140-035), 1% Antibiotics (Penicillin/Streptomycin 100 U/ml penicillin and 100 µg/ml streptomycin; Gibco), and 150 µM β-Mercaptoethanol (Gibco, 21985-023) at 37°C under a humidified 5% CO2 atmosphere. […] GSK3357679A 100 nM (Ding et al., in prep) was used as a positive control. At the end of the treatment, MEFs were briefly washed twice in DPBS (Gibco, 14190-094), and fixed in 3.7% Paraformaldehyde pH 7.00 (Sigma, P6148), 200 mM HEPES, for 20 min. Cells were then washed two times with DMEM, 10 mM HEPES, and then incubated for 10 min with DMEM, 10 mM HEPES. […] Images were acquired using a Nikon Eclipse Ti-S fluorescence microscope with a 63× objective. Images were analyzed using the mito-QC counter as previously described. Experiments were performed in 3–4 independent experiments and data was analyzed with a one-way ANOVA followed by a Dunnett's multiple comparison test using the GraphPad Prism software (version 8.4.3 (686)).

Another experiment relates to LRRK2 at Ser935. Put plainly: LRRK2 Ser935 phospho-immunoblot in wild-type MEFs. Type of experiment: cell-based, mouse. On the procedure:
Wild-type and homozygous LRRK2 [R1441C] […] All cells were grown at 37°C, 5% (by vol) CO2 in a humidified atmosphere and regularly tested for mycoplasma contamination.
Inhibitors were dissolved in dimethyl sulfoxide (DMSO) (Sigma, #D2650). The inhibitors were diluted 1000× into cell medium. The equivalent volume of DMSO was added to the minus inhibitor controls. Experiments were performed in six-well plates, 10 cm dishes or 15 cm dishes depending on the amount of cell extract required.
Lysates were incubated on ice for 30 min and clarified by centrifugation at 20 800×g at 4°C for 20 min. Supernatants were quantified by Bradford assay (Bio-Rad Protein Assay Dye Reagent Concentrate #5000006) and samples prepared in 1× lithium dodecyl sulfate sample buffer final concentration (NuPage LDS Sample buffer 4× Invitrogen, #NP0008). When not deployed immediately, lysates were snap-frozen in liquid nitrogen and stored at −80°C until use.
Cell extracts were mixed with a quarter of a volume of NuPage LDS Sample buffer 4× Invitrogen and heated at 95°C for 5 min. […] At the end of electrophoresis, proteins were electrophoretically transferred onto the nitrocellulose membrane (GE Healthcare, Amersham Protran Supported 0.45 µm NC) at 100 V for 90 min on ice in the transfer buffer (48 mM Tris–HCl and 39 mM glycine supplemented with 20% methanol). Transferred membrane was blocked with 5% (w/v) skim milk powder dissolved in TBS-T [20 mM Tris–HCl, pH 7.5, 150 mM NaCl and 0.1% (v/v) Tween 20] at room temperature for 1 h. The membrane was typically cropped into three pieces, namely the ‘top piece’ (from the top of the membrane to 75 kDa), the ‘middle piece’ (between 75 and 30 kDa) and the ‘bottom piece’ (from 30 kDa to the bottom of the membrane). All primary antibodies were used at 1 μg/ml final concentration and incubated in TBS-T containing 5% (by mass) bovine serum albumin with exception of α-tubulin and GAPDH antibodies that were diluted 1 : 5000 and 1 : 2000, respectively. The top piece was incubated with the indicated rabbit anti-LRRK2 phosphorylation site antibody multiplexed with mouse anti-LRRK2 C-terminus total antibody. The middle piece was incubated with mouse anti-GAPDH or anti-α-tubulin antibody. The bottom pieces were incubated with indicated total and phospho-Rab antibodies. Membranes were incubated in primary antibody overnight at 4°C. Prior to secondary antibody incubation, membranes were washed three times with TBS-T for 10 min each. […] Membranes were washed with TBS-T for three times with a 10 min incubation for each wash. Protein bands were acquired via near infrared fluorescent detection using the Odyssey CLx imaging system and quantified using the Image Studio software.

A further experiment addresses T1, Flag-LRRK2[G2019S] (Homo sapiens, UniProt Q5S007, G2019S).
T1 construct: towards full length wild type and G2019S pathogenic LRRK2 mutant in a biochemical assay; Flag (N); purchased ThermoFisher Scientific A15201
The experiment is described as follows: IC50 LRRK2 Nictide assay, G2019S. Type of experiment: biochemical. The conditions noted are these: IC50 LRRK2 G2019S (100 µM ATP), Nictide peptide substrate, value ± SD.

T1 sequence (Q5S007 whole entry G2019S): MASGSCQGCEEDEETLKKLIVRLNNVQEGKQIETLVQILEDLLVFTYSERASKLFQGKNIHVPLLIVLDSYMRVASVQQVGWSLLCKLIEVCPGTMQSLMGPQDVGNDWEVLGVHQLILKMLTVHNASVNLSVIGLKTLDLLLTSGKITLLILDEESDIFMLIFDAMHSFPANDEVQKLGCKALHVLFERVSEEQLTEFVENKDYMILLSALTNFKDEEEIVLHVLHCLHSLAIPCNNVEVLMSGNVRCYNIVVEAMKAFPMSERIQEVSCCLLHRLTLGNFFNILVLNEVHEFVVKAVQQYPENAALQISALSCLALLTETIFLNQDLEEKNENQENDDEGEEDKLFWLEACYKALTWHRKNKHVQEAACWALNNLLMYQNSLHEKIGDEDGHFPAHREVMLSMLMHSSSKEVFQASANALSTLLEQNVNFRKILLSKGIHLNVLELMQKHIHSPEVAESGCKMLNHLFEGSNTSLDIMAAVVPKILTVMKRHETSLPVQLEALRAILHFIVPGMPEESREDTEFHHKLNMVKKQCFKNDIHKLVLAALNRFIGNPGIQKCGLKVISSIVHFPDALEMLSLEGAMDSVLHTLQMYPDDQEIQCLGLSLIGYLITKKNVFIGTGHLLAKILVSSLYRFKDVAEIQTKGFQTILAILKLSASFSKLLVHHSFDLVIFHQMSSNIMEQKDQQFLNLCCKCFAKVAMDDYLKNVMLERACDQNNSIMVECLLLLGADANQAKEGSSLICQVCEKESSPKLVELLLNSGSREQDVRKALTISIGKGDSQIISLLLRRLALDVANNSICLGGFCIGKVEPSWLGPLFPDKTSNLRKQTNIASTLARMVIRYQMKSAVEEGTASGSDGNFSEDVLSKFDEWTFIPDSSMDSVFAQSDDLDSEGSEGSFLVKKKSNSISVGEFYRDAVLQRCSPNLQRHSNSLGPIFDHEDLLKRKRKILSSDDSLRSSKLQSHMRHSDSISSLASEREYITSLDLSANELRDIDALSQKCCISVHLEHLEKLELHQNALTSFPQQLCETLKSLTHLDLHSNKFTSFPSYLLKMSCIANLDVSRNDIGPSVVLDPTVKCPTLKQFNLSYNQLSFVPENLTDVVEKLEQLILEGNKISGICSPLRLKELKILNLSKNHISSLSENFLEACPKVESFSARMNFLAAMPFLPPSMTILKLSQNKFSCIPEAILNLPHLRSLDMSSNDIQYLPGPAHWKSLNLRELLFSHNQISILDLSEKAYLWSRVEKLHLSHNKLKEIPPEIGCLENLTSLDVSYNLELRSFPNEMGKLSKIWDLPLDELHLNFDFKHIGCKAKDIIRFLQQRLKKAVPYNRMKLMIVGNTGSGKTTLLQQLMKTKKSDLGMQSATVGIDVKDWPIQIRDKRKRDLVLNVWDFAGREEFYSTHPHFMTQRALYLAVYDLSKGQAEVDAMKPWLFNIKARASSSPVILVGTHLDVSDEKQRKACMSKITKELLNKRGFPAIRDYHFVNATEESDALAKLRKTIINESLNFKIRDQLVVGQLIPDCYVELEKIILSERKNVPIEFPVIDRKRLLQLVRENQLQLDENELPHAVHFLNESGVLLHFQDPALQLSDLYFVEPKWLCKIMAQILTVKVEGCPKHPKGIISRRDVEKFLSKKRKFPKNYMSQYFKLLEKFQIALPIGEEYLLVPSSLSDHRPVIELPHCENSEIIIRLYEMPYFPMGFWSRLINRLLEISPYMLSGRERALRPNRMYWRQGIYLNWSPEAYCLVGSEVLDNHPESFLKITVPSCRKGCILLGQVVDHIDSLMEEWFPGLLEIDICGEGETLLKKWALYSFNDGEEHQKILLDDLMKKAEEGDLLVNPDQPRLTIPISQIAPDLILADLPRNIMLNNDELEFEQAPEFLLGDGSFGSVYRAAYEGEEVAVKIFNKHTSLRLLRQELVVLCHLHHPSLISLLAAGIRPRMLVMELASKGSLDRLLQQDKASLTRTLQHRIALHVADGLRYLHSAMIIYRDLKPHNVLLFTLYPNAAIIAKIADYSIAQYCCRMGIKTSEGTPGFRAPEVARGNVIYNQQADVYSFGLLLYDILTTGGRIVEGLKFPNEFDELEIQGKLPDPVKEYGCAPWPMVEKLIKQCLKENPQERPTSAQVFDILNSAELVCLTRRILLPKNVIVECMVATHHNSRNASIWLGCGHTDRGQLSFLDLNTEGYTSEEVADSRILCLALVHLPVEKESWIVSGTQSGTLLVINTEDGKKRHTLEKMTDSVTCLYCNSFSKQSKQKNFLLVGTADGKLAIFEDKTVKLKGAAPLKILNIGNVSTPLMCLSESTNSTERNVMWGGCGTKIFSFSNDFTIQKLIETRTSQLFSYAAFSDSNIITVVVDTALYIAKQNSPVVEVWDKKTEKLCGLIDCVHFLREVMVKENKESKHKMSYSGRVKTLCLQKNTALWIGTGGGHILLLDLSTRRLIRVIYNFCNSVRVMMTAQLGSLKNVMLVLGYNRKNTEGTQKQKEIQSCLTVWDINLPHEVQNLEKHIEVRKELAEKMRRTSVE

The IC50 is the concentration that inhibits the measured activity by half. A lower IC50 goes with greater potency in that assay. On to `Cc1ccc(C(=O)Nc2ccc(CN3CCN(C)CC3)c(C(F)(F)F)c2)cc1C#Cc1cnc2[nH]ncc2c1` [GZD-824], for which the “stimulation of basal mitophagy” value in experiment [1] is recorded as around 2 fold. Besides, the “effect on LRRK2 Ser935 phosphorylation” value in the experiment with LRRK2 at Ser935 (MEFs, 2 h dose response) was “did not induce dephosphorylation”; with LRRK2 at Ser935 (wild-type MEFs, 10 μM, 2 h, Supplemental Figure S2A), “did not reduce LRRK2 phosphorylation at Ser935 significantly”. In addition, the “Ser935 phosphorylation over 24 h time course” value in the experiment on LRRK2 at Ser935 (wild-type MEFs, 1 μM, 24 h) was “unaffected”. At Flag-LRRK2[G2019S], this compound showed an IC50 of 0.08 µM.

Values taken from PMC8589421, “Impact of Type II LRRK2 inhibitors on signaling and mitophagy” (Biochemical Journal, 2021).
